From patent US8877707B2, “Inhibitors of HCV NS5A” (Presidio Pharmaceuticals, Inc., priority 2010, dated 2014)

Tested on: HCV genotype 1b replicon in Huh 7 cells
Assay: HCV replicon assay (1b_Huh-Luc/Neo-ET cell line, luciferase readout)
Assay type: cell-based
Settings: Hepatitis C virus, Huh-7; HCV 1b replicon; read-out: Inhibition of HCV genotype 1b
How it was run: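 Replicon level was read as luciferase signal after 72 h compound exposure, triplicate wells, starting the day after cells were plated. Cell line: 1b_Huh-Luc/Neo-ET. Values normalised to control as percent, and EC50 fitted with a variable-slope sigmoid; determinations repeated.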

| Compound | EC50 [nM] |
| --- | --- |
| COC(=O)N[C@H](C(=O)N1CCC[C@H]1c1nc2ccc(-c3ccc4cc(-c5cnc([C@@H]6CCCN6C(=O)[C@@H](NC(=O)OC)[C@@H](C)OC)[nH]5)ccc4c3)cc2[nH]1)C(C)C [compound 510] | < 1 |
| CC[C@H](C)[C@H](NC(=O)OC)C(=O)N1CCC[C@H]1c1nc2ccc(-c3ccc4cc(-c5cnc([C@@H]6CCCN6C(=O)[C@@H](NC(=O)OC)[C@@H](C)OC)[nH]5)ccc4c3)cc2[nH]1 [compound 511] | < 1 |
| COC(=O)NC(C(=O)N1CCC[C@H]1c1ncc(-c2ccc3cc(-c4ccc5nc([C@@H]6CCCN6C(=O)C(NC(=O)OC)=C(C)C)[nH]c5c4)ccc3c2)[nH]1)=C(C)C [compound 512] | < 1 |
| COC[C@H](NC(=O)OC)C(=O)N1CCC[C@H]1c1ncc(-c2ccc3cc(-c4ccc5nc([C@@H]6CCCN6C(=O)[C@@H](NC(=O)OC)C(C)C)[nH]c5c4)ccc3c2)[nH]1 [compound 513] | < 1 |
| CC[C@H](C)[C@H](NC(=O)OC)C(=O)N1CCC[C@H]1c1nc2ccc(-c3ccc4cc(-c5cnc([C@@H]6CCCN6C(=O)[C@H](COC)NC(=O)OC)[nH]5)ccc4c3)cc2[nH]1 [compound 514] | < 1 |
| COC(=O)N[C@H](C(=O)N1CCC[C@H]1c1ncc(-c2ccc3cc(-c4ccc5nc([C@@H]6CCCN6C(=O)[C@@H](NC(=O)OC)C6CCCC6)[nH]c5n4)ccc3c2)[nH]1)C1CCCC1 [compound 515] | < 1 |
| COC(=O)N[C@H](C(=O)N1CCC[C@H]1c1ncc(-c2ccc3cc(-c4ccc5nc([C@@H]6CCCN6C(=O)[C@@H](NC(=O)OC)C6CC6)[nH]c5n4)ccc3c2)[nH]1)C1CC1 [compound 516] | < 1 |
| COC(=O)N[C@H](C(=O)N1CCC[C@H]1c1ncc(-c2ccc3cc(-c4ccc5nc([C@@H]6CCCN6C(=O)[C@@H](NC(=O)OC)C6CCCCC6)[nH]c5n4)ccc3c2)[nH]1)C1CCCCC1 [compound 517] | < 1 |
| CCC(CC)[C@H](NC(=O)OC)C(=O)N1CCC[C@H]1c1ncc(-c2ccc3cc(-c4ccc5nc([C@@H]6CCCN6C(=O)[C@@H](NC(=O)OC)C(CC)CC)[nH]c5c4)ncc3c2)[nH]1 [compound 518] | < 1 |
| COC(=O)N[C@H](C(=O)N1CCC[C@H]1c1ncc(-c2ccc3cc(-c4cnc5nc([C@@H]6CCCN6C(=O)[C@@H](NC(=O)OC)[C@@H](C)OC)[nH]c5c4)ccc3c2)[nH]1)[C@@H](C)OC [compound 519] | < 1 |
| CCC(CC)[C@H](NC(=O)OC)C(=O)N1CCC[C@H]1c1ncc(-c2ccc3cc(-c4ccc5nc([C@@H]6CCCN6C(=O)[C@@H](NC(=O)OC)C(CC)CC)[nH]c5n4)ccc3c2)[nH]1 [compound 520] | < 1 |
| CC[C@H](C)[C@H](NC(=O)OC)C(=O)N1CCC[C@H]1c1ncc(-c2ccc3cc(-c4ccc5nc([C@@H]6CCCN6C(=O)[C@@H](NC(=O)OC)[C@@H](C)CC)[nH]c5n4)ccc3c2)[nH]1 [compound 521] | < 1 |
| CC[C@@H](C)[C@H](NC(=O)OC)C(=O)N1CCC[C@H]1c1ncc(-c2ccc3cc(-c4ccc5nc([C@@H]6CCCN6C(=O)[C@@H](NC(=O)OC)[C@H](C)CC)[nH]c5n4)ccc3c2)[nH]1 [compound 522] | < 1 |
| COC(=O)N[C@@H](C(=O)N1CCC[C@H]1c1ncc(-c2ccc3cc(-c4ccc5nc([C@@H]6CCCN6C(=O)[C@H](NC(=O)OC)C6=CCC=CC6)[nH]c5n4)ccc3c2)[nH]1)C1=CCC=CC1 [compound 523] | < 1 |
| CC[C@H](C)[C@H](NC(=O)OC)C(=O)N1CCC[C@H]1c1nc2ccc(-c3ccc4cc(-c5cnc([C@@H]6CCCN6C(=O)[C@@H](NC(=O)OC)[C@@H](C)O)[nH]5)ccc4c3)cc2[nH]1 [compound 524] | < 1 |
| COC(=O)N[C@H](C(=O)N1CCC[C@H]1c1ncc(-c2ccc3cc(-c4ccc5nc([C@@H]6CCCN6C(=O)[C@@H](NC(=O)OC)[C@@H](C)OC)[nH]c5c4)ccc3c2)[nH]1)C(C)C [compound 525] | < 1 |
| CC[C@H](C)[C@H](NC(=O)OC)C(=O)N1CCC[C@H]1c1ncc(-c2ccc3cc(-c4ccc5nc([C@@H]6CCCN6C(=O)[C@@H](NC(=O)OC)[C@@H](C)OC)[nH]c5c4)ccc3c2)[nH]1 [compound 526] | < 1 |
| COC(=O)N[C@H](C(=O)N1CCC[C@H]1c1ncc(-c2ccc3cc(-c4cc5[nH]c([C@@H]6CCCN6C(=O)[C@@H](NC(=O)OC)C(C)C)nc5cn4)ccc3c2)[nH]1)C(C)C [compound 527] | < 1 |
| COC(=O)N[C@H](C(=O)N1CCC[C@H]1c1nc2ccc(-c3ccc4cc(-c5cnc([C@@H]6CCCN6C(=O)[C@@H](NC(=O)OC)[C@@H](C)OC)[nH]5)ccc4c3)cc2[nH]1)C1CCCC1 [compound 528] | < 1 |
| COC(=O)N[C@H](C(=O)N1CCC[C@H]1c1nc2ccc(-c3ccc4cc(-c5cnc([C@@H]6CCCN6C(=O)[C@@H](NC(=O)OC)[C@@H](C)OC)[nH]5)ccc4c3)cc2[nH]1)C1CCCCC1 [compound 529] | < 1 |
| COC(=O)N[C@H](C(=O)N1CCC[C@H]1c1ncc(-c2ccc3cc(-c4ccc5nc([C@@H]6CCCN6C(=O)[C@@H](NC(=O)OC)[C@@H](C)OC)[nH]c5n4)ccc3c2)[nH]1)[C@@H](C)OC [compound 530] | < 1 |

| Compound | EC50 [nM] |
| --- | --- |
| COC(=O)N[C@H](C(=O)N1CCC[C@H]1c1ncc(-c2ccc3cc(-c4ccc5nc([C@@H]6CCCN6C(=O)[C@@H](NC(=O)OC)C6CCOCC6)[nH]c5c4)nnc3c2)[nH]1)C1CCOCC1 [compound 531] | < 1 |
| COC(=O)N[C@H](C(=O)N1CCC[C@H]1c1nc2ccc(-c3ccc4cc(-c5cnc([C@@H]6CCCN6C(=O)[C@@H](NC(=O)OC)[C@@H](C)OC)[nH]5)ccc4c3)nc2[nH]1)C(C)C [compound 532] | < 1 |
| COC(=O)N[C@H](C(=O)N1CCC[C@H]1c1nc2ccc(-c3ccc4cc(-c5cnc([C@@H]6CCCN6C(=O)[C@@H](NC(=O)OC)[C@@H](C)OC)[nH]5)ccc4c3)nc2[nH]1)C1CCCC1 [compound 533] | < 1 |
| CC[C@H](C)[C@H](NC(=O)OC)C(=O)N1CCC[C@H]1c1nc2ccc(-c3ccc4cc(-c5cnc([C@@H]6CCCN6C(=O)[C@@H](NC(=O)OC)[C@@H](C)OC)[nH]5)ccc4c3)nc2[nH]1 [compound 534] | < 1 |
| COC(=O)N[C@H](C(=O)N1CCC[C@H]1c1ncc(-c2ccc3oc(-c4ccc(-c5cnc([C@@H]6CCCN6C(=O)[C@H](NC(=O)OC(C)(C)C)c6ccccc6)[nH]5)cc4)nc3c2)[nH]1)C(C)C [compound 535] | < 1 |
| COC(=O)N[C@H](C(=O)N1CCC[C@H]1c1ncc(-c2ccc(-c3nc4cc(-c5cnc([C@@H]6CCCN6C(=O)[C@H](NC(=O)OC)c6ccccc6)[nH]5)ccc4s3)cc2)[nH]1)C(C)C [compound 536] | < 1 |
| COC(=O)N[C@H](C(=O)N1CCC[C@H]1c1nc2ccc(-c3ccc4cc(-c5ccc6nc([C@@H]7CCCN7C(=O)[C@@H](NC(=O)OC)C(C)C)[nH]c6c5)nnc4c3)cc2[nH]1)C(C)C [compound 537] | < 1 |
| COC(=O)N[C@H](C(=O)N1CCC[C@H]1c1nc2ccc(-c3ccc4cc(-c5ccc6nc([C@@H]7CCCN7C(=O)[C@@H](NC(=O)OC)[C@@H](C)OC)[nH]c6c5)nnc4c3)cc2[nH]1)[C@@H](C)OC [compound 538] | < 1 |
| COC(=O)N[C@H](C(=O)N1CCC[C@H]1c1nc2c([nH]1)-c1ccc(-c3ccc4cc(-c5cnc([C@@H]6CCCN6C(=O)[C@H](NC(=O)OC)c6ccccc6)[nH]5)ccc4n3)cc1CCC2)C(C)C [compound 539] | < 1 |
| COC(=O)N[C@H](C(=O)N1CCC[C@H]1c1nc2c([nH]1)-c1ccc(-c3ccc4cc(-c5cnc([C@@H]6CCCN6C(=O)[C@H](NC(=O)OC6CCOCC6)c6ccccc6)[nH]5)ccc4n3)cc1CCC2)C(C)C [compound 540] | < 1 |
| COC(=O)N[C@H](C(=O)N1CCC[C@H]1C(=O)Nc1ccc(-c2ccc3cc(-c4cnc([C@@H]5CCCN5C(=O)[C@@H](NC(=O)OC)C(C)C)[nH]4)ccc3n2)cc1)C(C)C [compound 541] | 1 to 9.9 |
| COC(=O)N[C@H](C(=O)N1CCC[C@H]1C(=O)Nc1ccc(-c2ccc3cc(-c4cnc([C@@H]5CCCN5C(=O)[C@@H](NC(=O)OC)C5CCOCC5)[nH]4)ccc3n2)cc1)C1CCOCC1 [compound 542] | 1 to 9.9 |
| COC(=O)N[C@@H](C(=O)N1CCC[C@H]1C(=O)Nc1ccc(-c2ccc3cc(-c4cnc([C@@H]5CCCN5C(=O)[C@H](NC(=O)OC)c5ccccc5)[nH]4)ccc3n2)cc1)c1ccccc1 [compound 543] | < 1 |
| COC(=O)N[C@H](C(=O)N1CCC[C@H]1CNC(=O)c1ccc(-c2ccc3cc(-c4cnc([C@@H]5CCCN5C(=O)[C@@H](NC(=O)OC)C(C)C)[nH]4)ccc3n2)cc1)C(C)C [compound 544] | < 1 |
| COC(=O)N[C@@H](C(=O)N1CCC[C@H]1CNC(=O)c1ccc(-c2ccc3cc(-c4cnc([C@@H]5CCCN5C(=O)[C@H](NC(=O)OC)c5ccccc5)[nH]4)ccc3n2)cc1)c1ccccc1 [compound 545] | < 1 |
| COC(=O)N[C@H](C(=O)N1CCC[C@H]1C(=O)NCc1ccc(-c2ccc3cc(-c4cnc([C@@H]5CCCN5C(=O)[C@@H](NC(=O)OC)C(C)C)[nH]4)ccc3n2)cc1)C(C)C [compound 546] | 10 to 999 |
| COC(=O)N[C@@H](C(=O)N1CCC[C@H]1C(=O)NCc1ccc(-c2ccc3cc(-c4cnc([C@@H]5CCCN5C(=O)[C@H](NC(=O)OC)c5ccccc5)[nH]4)ccc3n2)cc1)c1ccccc1 [compound 547] | < 1 |
| COC(=O)N[C@@H](C(=O)N1CCC[C@H]1CNC(=O)c1cnc2cc(-c3ccc4c(c3)CCc3nc([C@@H]5CCCN5C(=O)[C@H](NC(=O)OC)c5ccccc5)[nH]c3-4)ccc2c1)c1ccccc1 [compound 548] | < 1 |
| COC(=O)N[C@H](C(=O)N1CCC[C@H]1CNC(=O)c1cnc2cc(-c3ccc4c(c3)CCc3nc([C@@H]5CCCN5C(=O)[C@@H](NC(=O)OC)C(C)C)[nH]c3-4)ccc2c1)C(C)C [compound 549] | 1 to 9.9 |
| COC(=O)N[C@H](C(=O)N1CCC[C@H]1CNC(=O)c1cnc2cc(-c3ccc4c(ccc5nc([C@@H]6CCCN6C(=O)[C@@H](NC(=O)OC)C(C)C)[nH]c54)c3)ccc2c1)C(C)C [compound 550] | 1 to 9.9 |
| COC(=O)N[C@@H](C(=O)N1CCC[C@H]1CNC(=O)c1cnc2cc(-c3ccc4c(ccc5nc([C@@H]6CCCN6C(=O)[C@H](NC(=O)OC)c6ccccc6)[nH]c54)c3)ccc2c1)c1ccccc1 [compound 551] | < 1 |
